Measured values from publication PMC7995547, “ω‐Imidazolyl‐alkyl derivatives as new preclinical drug candidates for treating non‐alcoholic steatohepatitis” (Physiological Reports, 2021).
“And” between values parts separate entries of the source, which are not always exact repeats. Equal values may be shown once.

Key:
[1] = system: HFD‐induced NASH rat model (serum); assay: Liver enzyme activities and bilirubin in serum, NASH rat model; format: in vivo, Wistar rats; details: for Decrease in serum bilirubin level compared to disease group / Decrease in γ‐GT enzymatic activity compared to disease group / Reduction of the effect of HFD on γ‐GT activity: UDCA 40 mg/kg b.w.; for Decrease in γ‐GT enzymatic activity compared to disease group / Reduction of the effect of HFD on γ‐GT activity: average over doses (I‐ol, I‐an); for Decrease in ALT enzymatic activity compared to disease group / Reduction of the effect of HFD on ALT activity: highest concentrations (40 mg/kg b.w.); for Reduction of the effect of HFD on ALT activity: b87: dose not stated; for Decrease in AP enzymatic activity compared to disease group / Decrease in AST enzymatic activity compared to disease group: number: highest concentration (40 mg/kg b.w.), words: compound overall
Protocol: (§1) Studies were done using Wistar rats of female sex by the Institute of Pharmacology and Biochemistry at Minsk. The animals were 80–90 days old and weighed 180–200 g. They had free access to a liquid Lieber‐DeCarli (LDC) diet (Lieber et al., 2004) and were housed under standard conditions meaning a 12‐h light/dark cycle at 22 ± 2°C and 55 ± 5% humidity.
(§2) Group 1 was designated as the first control group; it was fed a normal standard solid diet. Group 2, as the second control group, was fed a standard amount of fat as a part of the liquid “physiological,” non‐high fat LDC diet. All other groups received the liquid ‘disease‐causing’ LDC diet (Table 2), including a high content of unsaturated fatty acids.
(§3) Both LDC diets were in a liquid form as produced by ssniff‐Spezialdiäten GmbH, Soest (Germany). The feed was provided over the entire experimental period of 16 weeks; however, the corresponding experimental substances were only administered in the last four weeks (Figure 3).
(§4) The experimental substances I‐ol, I‐an, and UDCA were dissolved in a 0.8% aqueous HPMC gel to obtain the following concentrations: (1) I‐ol at 0.4, 4, and 40 mg/kg body weight (b.w.), (2) I‐an at 0.4, 4, and 40 mg/kg b.w., and (3) UDCA at 40 mg/kg b.w. The Group‐2 and −3 rats received only HPMC as placebo. Each test encompassed 6–8 rats that were put up in a separate cage. The rats were fed ad libitum, and their intake per cage was controlled daily. In order to ensure an exact daily reproducible dosage, the experimental substances or only HPMC was administered intragastrically via oral gavage. Basically, the drug therapy of a chronic disease is the more efficient the higher the adherence of the affected patients. This is generally higher with peroral administration than with any other form of application. At the end of the experiment, the animals were sacrificed under fasting conditions, by aorta dissection and exsanguination, after anesthetizing with an intraperitoneal injection of 5% pentobarbital solution.
(§5) The activities of the liver enzymes aspartate aminotransferase (AST), alanine aminotransferase (ALT), alkaline phosphatase (AP), and γ‐glutamyl transferase (γ‐GT) as well as bilirubin and triglyceride levels in the serum were determined as described by the instructions of BIO‐LA‐tests kit (Erba Lachema, Brno, Czech Republic).

[2] = system: HFD‐induced NASH rat model (liver and serum); assay: End products of fat metabolism (liver and serum lipids), NASH rat model; format: in vivo, Wistar rats; details: for Decrease in liver triglyceride levels compared to disease group / Reduction of the effect of HFD on liver triglyceride levels: average over doses (I‐ol, I‐an); for Decrease in liver triglyceride levels compared to disease group / Reduction of the effect of HFD on liver triglyceride levels / Decrease in liver phospholipid levels compared to disease group / Decrease in serum LDL cholesterol / Decrease in serum triglyceride levels compared to disease group: UDCA 40 mg/kg b.w.
Protocol: as §1, §2, §3, §4, §5
Extraction of lipids was performed using a solvent composed of chloroform and methanol (2:1 v/v). Thin‐layer chromatography (TLC) was used to separate off neutral lipids and phospholipids. Silicagel G 60 plates (0.25 mm thick) were used. The lipids were separated by ascending chromatography in a system composed of hexane:diethylic ether:glacial acetic acid (73:25:2; v/v/v). They were visualized by iodine vapor and the spots corresponding to triglycerides and cholesterol were scraped off and eluted with methanol for spectrophotometric evaluation. Triglyceride and cholesterol levels were determined using the BIO‐LA‐test kit (Erba Lachema, Brno, Czech Republic). Phospholipid concentration was determined by measuring the levels of phosphomolybdate using an inorganic phosphate reagent containing molybdate (Findlay & Evans, 1987). VLDL level was determined by using the manganese precipitation method (Burstein & Scholnick, 1973) after partial modification (Hirano et al., 2003).

CYP2E1 = system: CYP2E1; parameters: method as in Diesinger et al., 2020; details: ref Diesinger et al., 2020, cited from earlier work; for Inhibition of CYP2E1 (in words): in vitro experiments
[3] = system: HFD‐induced NASH rat model (liver); assay: Area of connective tissue in the liver (Mallory‐Azan staining), NASH rat model; format: in vivo, Wistar rats
Protocol: as §1, §2, §3, §4
Liver tissue sections were subject to the Mallory‐Azan (Heidenhain Azan) staining method for visualizing the connective tissues. This method was a modification of the original Mallory staining protocol, wherein azocarmin with a mixture of aniline blue and orange G was used. In this method, the collagen tissue and basophilic granules turn blue, the muscle tissue and acidophilic granules turn orange to red, and the cell nuclei and cytoplasm turn red. Elastic fibers remain unstained; however, they might turn yellow or pink. The proportion of positively stained liver tissue to the total area of the histological slide was determined quantitatively.

[4] = system: HFD‐induced NASH rat model (serum); assay: Adipocytokines and glucose metabolism in serum, NASH rat model; format: in vivo, Wistar rats; details: for Decrease in serum TNF‐α level compared to disease group / Decrease in serum leptin compared to disease group / Increase in serum adiponectin compared to disease group / Reduction of the effect of HFD on serum adiponectin / Reduction of the effect of HFD on serum leptin: average over doses (I‐ol, I‐an); for Reduction of the effect of HFD on serum adiponectin: UDCA 40 mg/kg b.w. (elevated the concentration by); for Reduction of the effect of HFD on serum leptin: UDCA 40 mg/kg b.w. (reduced leptin concentration); for Serum leptin above the reference value of control group 1: highest concentrations (40 mg/kg b.w.)
Protocol: as §1, §2, §3, §4
The concentrations of adiponectin and TNFα were measured using ELISA kits sold by BioCat GmbH (Heidelberg, Germany), whereas the one for determining leptin level was procured from BioVendor Laboratory Medicine Inc. (Brno, Czech Republic). Insulin concentration was determined using the radioimmunoassay kit RIO‐insulin‐PG‐J125 (IBOCH, Minsk, Belarus). Serum glucose level was determined based on the “Accu‐Check Active blood glucose” monitoring method developed by Roche‐Diagnostics.

[5] = serum, highest concentration (40 mg/kg b.w.)
[6] = highest concentration (40 mg/kg b.w.)
[7] = lowest concentration (0.4 mg/kg b.w.)

Structure (SMILES) | Decrease in serum bilirubin level compared to disease group ([1]; average over doses) | Decrease in γ‐GT enzymatic activity compared to disease group ([1]; serum) [%] | Reduction of the effect of HFD on γ‐GT activity ([1]; serum) [%] | Decrease in ALT enzymatic activity compared to disease group ([1]; serum) [%] | Reduction of the effect of HFD on ALT activity ([1]; serum) | Decrease in AP enzymatic activity compared to disease group ([1]; serum) | Decrease in AST enzymatic activity compared to disease group ([1]; serum) | Decrease in liver triglyceride levels compared to disease group [2] [%] | Reduction of the effect of HFD on liver triglyceride levels [2] [%] | Decrease in liver phospholipid levels compared to disease group ([2]; average over doses) | Decrease in serum LDL cholesterol ([2]; average over doses) | Decrease in serum triglyceride levels compared to disease group ([2]; average over doses) | Inhibition of CYP2E1 (in words) (CYP2E1) | Decrease in serum TNF‐α level compared to disease group ([4]; UDCA 40 mg/kg b.w.) | Decrease in serum leptin compared to disease group ([4]; UDCA 40 mg/kg b.w.) [%] | Increase in serum adiponectin compared to disease group ([4]; UDCA 40 mg/kg b.w.) [%] | Reduction of the effect of HFD on serum adiponectin [4] [%] | Reduction of the effect of HFD on serum leptin [4] [%] | Serum leptin above the reference value of control group 1 [4] [%] | other results
CCCCCCCCCCCCn1ccnc1 [I‐an, 1‐imidazolyldodecane] | no therapeutic effect | 35 | 86 | 20 | 66% and ~70% | 21% | 21% | 15 | 33 | 13% | non‐significant trend toward lowering the serum LDL level | 12% | strong inhibitors of CYP2E1 | not significant | 18 | 31 | 38 | 62 | 1 | Dose dependence of the effect on ALT activity ([1]; 0.4, 4, 40 mg/kg b.w.): weak, significant (p < 0.05), linear, dose‐dependent effect; Dose dependence of the effect on AP activity ([1]; 0.4, 4, 40 mg/kg b.w.): weak but significant (p < 0.05), linear, dose‐dependent effect; Dose dependence of the effect on AST activity ([1]; 0.4, 4, 40 mg/kg b.w.): moderate, very highly significant (p < 0.001), linear, dose‐dependent effect; Reduction of the effect of HFD on AP activity [1, 5]: 89%; Reduction of the effect of HFD on AST activity [1, 5]: 92% and 90%; Dose dependence of the effect on liver phospholipid levels ([2]; 0.4, 4, 40 mg/kg b.w.): strong and very highly significant (p < 0.001), linear, dose‐dependent effect; Reduction of the effect of HFD on liver phospholipid levels ([2]; average over doses): 53%; Serum triglyceride level below the reference value of group 1 ([2]; average over doses): 4%; Liver phospholipid level above the reference value of group 1 [2, 6]: 3%; Liver cholesterol level below the reference value of group 1 ([2]; low dose (0.4 mg/kg b.w.)): 8%; Reduction of liver cholesterol level compared to disease group ([2]; low dose (0.4 mg/kg b.w.)): 18%; Effect on area of connective tissue in the liver (in words) ([3]; compound overall): no therapeutic effect; Dose dependence of the effect on serum adiponectin ([4]; 0.4, 4, 40 mg/kg b.w.): weak, significant (p < 0.05) linear dose‐dependent effect; Dose dependence of the effect on serum leptin ([4]; 0.4, 4, 40 mg/kg b.w.): weak yet significant (p < 0.05) linear dose‐dependent effect
OCCCCCCCCCCCCn1ccnc1 [I‐ol, 12‐imidazolyl‐1‐dodecanol] | 14% | 34 | 84 | 16 | 55% and ~70% | no therapeutic effect | no therapeutic effect | 18 | 41 | no therapeutic effect | 28% | no therapeutic effect | strong inhibitors of CYP2E1 | 49% | 22 | 64 | 78 | 75 | 3 | Dose dependence of the effect on γ‐GT activity ([1]; 0.4, 4, 40 mg/kg b.w.): moderate but very highly significant (p < 0.001), linear, dose‐dependent effect; Serum bilirubin below the levels measured in the disease group and the two control groups ([1]; average over doses): more than 10%; Serum LDL cholesterol below the reference value of group 1 ([2]; average over doses): 11%; Reduction of serum VLDL level ([2]; medium concentration (4 mg/kg b.w.)): 19%; Liver cholesterol level below the reference value of group 1 ([2]; medium dose (4 mg/kg b.w.)): 7%; Reduction of liver cholesterol level compared to disease group ([2]; medium dose (4 mg/kg b.w.)): 17%; Binding strength to CYP2E1 (rank) (CYP2E1): highest affinity; Decrease in area of connective tissue in the liver compared to disease group [3, 7]: 28%; Reduction of the effect of HFD on area of connective tissue in the liver [3, 7]: 72%; Reduction of the effect of HFD on serum TNF‐α level ([4]; average over doses (I‐ol), UDCA 40 mg/kg b.w.): 66%; Serum adiponectin above the reference value of control group 1 [4, 6]: 4%
